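Test compounds were applied to cells in 96-well plates for 48 hours at 5 doses. Abbreviation: GI50, concentration required for 50% inhibition of growth. Definition used: TGI = concentration required for complete inhibition of growth.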
Experiments:
Assay in all cases: NCI anticancer screen, dose series, 48 h
786-0 renal = system: 786-0 renal
HT29 colon = system: HT29 colon
IGROV1 ovarian = system: IGROV1 ovarian
K-562 leukemia = system: K-562 leukemia
M14 melanoma = system: M14 melanoma
OVCAR-4 ovarian = system: OVCAR-4 ovarian
OVCAR-8 ovarian = system: OVCAR-8 ovarian
SF-268 CNS = system: SF-268 CNS
SF-539 CNS = system: SF-539 CNS
SK-MEL-2 melanoma = system: SK-MEL-2 melanoma
SN12C renal = system: SN12C renal
TK-10 renal = system: TK-10 renal

| SMILES | TGI (786-0 renal) [µM] | TGI (HT29 colon) [µM] | TGI (IGROV1 ovarian) [µM] | TGI (K-562 leukemia) [µM] | TGI (M14 melanoma) [µM] | TGI (OVCAR-4 ovarian) [µM] | TGI (OVCAR-8 ovarian) [µM] | TGI (SF-268 CNS) [µM] | TGI (SF-539 CNS) [µM] | TGI (SK-MEL-2 melanoma) [µM] | TGI (SN12C renal) [µM] | TGI (TK-10 renal) [µM] | GI50 (SN12C renal) [µM] |
| --- | --- | --- | --- | --- | --- | --- | --- | --- | --- | --- | --- | --- | --- |
| COc1cc(S(=O)(=O)Nc2nc(-c3ccc(N=Cc4ccccc4O)cc3)cs2)ccc1Cl | > 100 | > 100 | > 100 | > 100 | > 100 | > 100 | > 100 | > 100 | > 100 | > 100 | 77.3 | > 100 | – |
| N/C(=N\N=C\c1nc2ccccc2o1)c1cnccn1 | > 100 | > 100 | > 100 | > 100 | > 100 | > 100 | > 100 | > 100 | > 100 | > 100 | > 100 | > 100 | – |
| N#CCc1nc(-c2cc3ccccc3oc2=O)cs1 | > 100 | > 100 | > 100 | > 100 | > 100 | > 100 | > 100 | > 100 | > 100 | 80.2 | > 100 | > 100 | – |
| Cc1nc2ccc(N=Nc3c(C)noc3C)cc2[nH]1 | > 100 | 71.1 | 34.3 | > 100 | > 100 | > 100 | 89.6 | > 100 | 70.7 | > 100 | > 100 | > 100 | – |
| NCCc1ccc(S(=O)(=O)O)cc1[N+](=O)[O-] | > 100 | > 100 | > 100 | > 100 | > 100 | > 100 | > 100 | > 100 | > 100 | > 100 | > 100 | > 100 | – |
| N#CC1=C(S)N(C2OC(CO)C(O)C(O)C2O)C(c2ccccc2)=CC1c1ccco1 (configuration not stated) | > 100 | > 100 | > 100 | > 100 | > 100 | > 100 | > 100 | > 100 | > 100 | > 100 | > 100 | > 100 | – |
| CC1C(OS(=O)(=O)c2ccc3[nH]c(=S)sc3c2)CC2C3(C)CCC2(C(C)C(=O)O)C(O)C13 (configuration not stated) | 56.8 | 35.4 | 35.8 | > 100 | 84.1 | 94.2 | 54.6 | > 100 | 46 | 81.7 | > 100 | > 100 | – |
| CC(C)=CCC[C@@H](C)C1=C(N)C(O)=C(C)C(=O)C1=O | > 75 | > 48 | > 75 | > 75 | > 75 | > 75 | > 61.2 | > 75 | > 75 | > 75 | > 75 | > 75 | – |
| CC(C)(C)n1c(=O)n2c(-c3ccccc3)c(-c3ccccc3)n2c1=O | > 100 | > 100 | > 100 | > 100 | > 100 | > 100 | > 100 | > 100 | > 100 | 85.3 | > 100 | > 100 | – |
| CC(=O)n1c2ccc(Br)cc2c2nc3ccccc3nc21 | > 100 | > 100 | > 100 | > 100 | > 100 | > 100 | > 100 | > 100 | > 100 | > 100 | > 100 | > 100 | – |
| CCOC(OCC)(OCC)C(Br)CC (configuration not stated) | 37.8 | > 100 | > 100 | > 100 | > 100 | > 100 | > 100 | > 100 | > 100 | > 100 | > 100 | > 100 | – |
| O=[N+]([O-])c1ccc2c3c1[C@@H]1O[C@@H]1c1cccc(c1-3)[C@@H]1O[C@H]21 | 7.85 | 14.7 | 2.72 | > 100 | 9.9 | 9.48 | 4.46 | 10.6 | 4.02 | > 23.7 | 15.7 | > 51.2 | 3.36 |
| O[C@@H]1[C@H](OC2c3ccccc3-c3ccccc32)[C@H](OCc2ccccc2)[C@@H]2OC[C@H]1O2 | 42.1 | > 100 | > 100 | > 100 | > 100 | > 100 | > 100 | > 100 | 81.7 | > 100 | > 100 | > 100 | – |
| O=C1CSC(c2cc3cc(Br)ccc3nc2Cl)N1c1ccc(Cl)cc1 (configuration not stated) | > 100 | > 100 | > 100 | > 100 | 84.9 | 81.5 | > 100 | > 100 | 37.8 | 32.2 | 48.7 | 70.7 | – |
| CCN(CC)c1ccc(Cl)c2c1C(O)(C(C)C)C2(C)C (configuration not stated) | 27.7 | 24.5 | 27.8 | 43.9 | 30.5 | 33.3 | 33.4 | 44.2 | 34.2 | 29.4 | 30.5 | 30.2 | – |
| CCOc1ccc(NC(=O)C(=O)C(/C(=N/N)C(=O)OC)c2nc3ccc([N+](=O)[O-])cc3[nH]c2=O)cc1 (configuration not stated) | > 100 | > 100 | > 100 | > 100 | > 100 | > 100 | > 100 | > 100 | > 100 | > 100 | > 100 | > 100 | – |
| CCc1nc(N)nc(N)c1-c1ccc(N2CCOCC2)c(N=[N+]=[N-])c1 | > 100 | > 100 | > 100 | > 90.6 | > 100 | > 100 | > 100 | > 100 | > 100 | > 100 | > 100 | > 100 | – |
| COc1cc(Nc2cc(Cl)cc(Cl)c2)nc(N)n1 | 31.8 | 33.2 | 44.2 | > 100 | 42.1 | 54 | 39.6 | 41.3 | 33 | 32.1 | 40.1 | 53.9 | – |

— PubChem BioAssay (NCI)
